Source: patent publication US20070270421A1, “Novel pyridine Derivative and Pyrimidine Derivative (1)” (priority 2004, published 2007)
pIC50: −log10 of the molar value.

Biological target: T1, HGFR (His6-HGFR cytoplasmic domain) (Homo sapiens, UniProt P08581)
T1 construct: made in house; host or cells: Spodoptera frugiperda Sf9 insect cells (baculovirus, pFastBac-HT)
Assay: Inhibitory activity against HGFR tyrosine kinase activity (HTRF)
Assay type: biochemical
Conditions: biotin-poly(GT), ATP, 30° C. 10 min, read-out: IC50 (concentration necessary to inhibit HGFR kinase activity by 50%)
How it was run: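 Baculovirus/Sf9-expressed N-terminal His6-tagged HGFR cytoplasmic domain (from Lys974), Ni-NTA purified, phosphorylated biotin-poly(GT) in Hepes pH 7.4 with MgCl2/MnCl2. ATP added as 4 μM solution; 10 min at 30° C., stopped with EDTA. Phosphotyrosine product detected by HTRF.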

T1 sequence (P08581 956-1390 limits assumed): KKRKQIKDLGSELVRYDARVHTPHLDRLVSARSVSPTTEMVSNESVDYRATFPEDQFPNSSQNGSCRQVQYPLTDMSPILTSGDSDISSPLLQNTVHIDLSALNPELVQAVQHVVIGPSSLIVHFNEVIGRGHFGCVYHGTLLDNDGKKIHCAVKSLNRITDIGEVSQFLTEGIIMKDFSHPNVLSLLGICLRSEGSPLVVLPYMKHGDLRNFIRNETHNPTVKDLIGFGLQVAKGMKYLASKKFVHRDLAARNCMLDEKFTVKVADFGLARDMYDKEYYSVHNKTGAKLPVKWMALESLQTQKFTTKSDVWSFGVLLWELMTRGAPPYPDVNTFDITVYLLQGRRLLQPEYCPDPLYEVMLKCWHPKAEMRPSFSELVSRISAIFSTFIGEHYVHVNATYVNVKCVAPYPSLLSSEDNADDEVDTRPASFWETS

pIC50 | SMILES
7.24 | CN(C)C1CN(C2CCN(C(=O)Nc3cc(Oc4ccc(NC(=S)NC(=O)Cc5ccc(F)cc5)cc4)ccn3)CC2)C1 [Example 195, 4-[3-(Dimethylamino)azetidin-1-yl]piperidine-1-carboxylic acid [4-(4-{3-[2-(4-fluorophenyl)acetyl]thioureido}phenoxy)pyridin-2-yl]amide]
6.96 | CN1CCN(C2CCN(C(=O)Nc3cc(Oc4ccc(NC(=O)NC(=O)Cc5ccc(F)cc5)cc4)ccn3)CC2)CC1 [Example 344, 4-(4-{3-[2-(4-Fluorophenyl)acetyl]ureido}phenoxy)-2-{[4-(1-methylpiperazin-4-yl)piperidin-1-yl]carbonylamino}pyridine]
7.13 | O=C(Cc1ccc(F)cc1)NC(=O)Nc1ccc(Oc2ccnc(NC(=O)N3CCC(N4CCCC4)CC3)c2)c(F)c1 [Example 174, 4-(Pyrrolidin-1-yl)piperidine-1-carboxylic acid [4-(2-fluoro-4-{3-[2-(4-fluorophenyl)acetyl]ureido}phenoxy)pyridin-2-yl]amide]
7.17 | CN1CCC(N(C)C(=O)Nc2cc(Oc3ccc(NC(=S)NC(=O)Cc4ccc(F)cc4)c(F)c3)ccn2)CC1 [Example 289, 3-[4-(3-Fluoro-4-{3-[2-(4-fluorophenyl)acetyl]thioureido}phenoxy)pyridin-2-yl]-1-methyl-1-(1-methylpiperidin-4-yl)urea]
7.00 | CN1CCC(N2CCN(C(=O)Nc3cc(Oc4ccc(NC(=O)NC(=O)Cc5ccc(F)cc5)cc4)ccn3)CC2)CC1 [Example 346, 4-(4-{3-[2-(4-Fluorophenyl)acetyl]ureido}phenoxy)-2-{[4-(1-methylpiperidin-4-yl)piperazin-1-yl]carbonylamino}pyridine]
7.03 | CN1CC(N2CCN(C(=O)Nc3cc(Oc4ccc(NC(=O)NC(=O)Cc5ccc(F)cc5)cc4F)ccn3)CC2)C1 [Example 383, 4-(1-Methylazetidin-3-yl)piperazine-1-carboxylic acid [4-(2-fluoro-4-{3-[2-(4-fluorophenyl)acetyl]ureido}phenoxy)pyridin-2-yl]amide]
6.82 | CN1CC(N2CCN(C(=O)Nc3cc(Oc4ccc(NC(=S)NC(=O)Cc5ccc(F)cc5)cc4)ccn3)CC2)C1 [Example 337, 4-(1-Methylazetidin-3-yl)piperazine-1-carboxylic acid [4-(4-{3-[2-(4-fluorophenyl)acetyl]thioureido}phenoxy)pyridin-2-yl]amide]

Second part, the molecule before the results:

SMILES | pIC50
O=C(CC(=O)Nc1ccc(F)cc1F)Nc1ccc(Oc2ccnc(NC(=O)N3CCCC3)c2)c(F)c1 [Example 57, N-(3-Fluoro-4-{2-[(pyrrolidine-1-carbonyl)amino]pyridin-4-yloxy}phenyl)-N′-(2,4-difluorophenyl)malonamide] | 7.32
O=C(Cc1ccc(F)cc1)NC(=S)Nc1ccc(Oc2cc(NC(=O)N3CCCCC3)ncn2)c(F)c1 [Example 6, Piperidine-1-carboxylic acid [6-(2-fluoro-4-{3-[2-(4-fluorophenyl)acetyl]thioureido}phenoxy)pyrimidin-4-yl]amide] | 7.22
CC(=O)N1CCC(N(C)C(=O)Nc2cc(Oc3ccc(NC(=S)NC(=O)Cc4ccc(F)cc4)cc3F)ccn2)CC1 [Example 301, 1-(1-Acetylpiperidin-4-yl)-3-[4-(2-fluoro-4-{3-[2-(4-fluorophenyl)acetyl]thioureido}phenoxy)pyridin-2-yl]-1-methylurea] | 7.55
CN(C)C[C@@H]1CCN(C(=O)Nc2cc(Oc3ccc(NC(=S)NC(=O)Cc4ccc(F)cc4)c(F)c3)ccn2)C1 [Example 219, (3S)-3-Dimethylaminomethylpyrrolidine-1-carboxylic acid [4-(3-fluoro-4-{3-[2-(4-fluorophenyl)acetyl]thioureido}phenoxy)pyridin-2-yl]amide] | 7.38
CN(C)C(=O)Nc1cc(Oc2ccc(NC(=S)NC(=O)Cc3ccc(F)cc3)cc2F)ncn1 [Example 7, 3-[6-(2-Fluoro-4-{3-[2-(4-fluorophenyl)acetyl]thioureido}phenoxy)pyrimidin-4-yl]-1,1-dimethylurea] | 7.74
CCN1CCC(N(C)C(=O)Nc2cc(Oc3ccc(NC(=S)NC(=O)Cc4ccc(F)cc4)cc3F)ncn2)CC1 [Example 285, 1-(1-Ethylpiperidin-4-yl)-3-[6-(2-fluoro-4-{3-[2-(4-fluorophenyl)acetyl]thioureido}phenoxy)pyrimidin-4-yl]-1-methylurea] | 7.29
CCC(=O)Nc1cc(Oc2ccc(NC(=O)CC(=O)Nc3ccc(F)cc3)c(F)c2)ccn1 [Example 75, N-(4-Fluorophenyl)-N′-[4-(2-propionylaminopyridin-4-yloxy)-2-fluorophenyl]malonamide] | 7.27
CN(C)CCN1CCN(C(=O)Nc2cc(Oc3ccc(NC(=O)NC(=O)Cc4ccccc4)cc3F)ccn2)CC1 [Example 364, 2-{[4-(2-Dimethylaminoethyl)piperazin-1-yl]carbonylamino}-4-{2-fluoro-4-[3-(2-phenylacetyl)ureido]phenoxy}pyridine] | 7.01
O=C(Cc1ccc(F)cc1)NC(=S)Nc1ccc(Oc2cc(NC(=O)N3CCOCC3)ncn2)c(F)c1 [Example 4, Morpholine-4-carboxylic acid [6-[2-fluoro-4-{3-[2-(4-fluorophenyl)acetyl]thioureido}phenoxy)pyrimidin-4-yl]amide] | 7.52
CN(C)CCN1CCN(C(=O)Nc2cc(Oc3ccc(NC(=S)NC(=O)Cc4ccccc4)cc3F)ccn2)CC1 [Example 309, 2-{[4-(2-Dimethylaminoethyl)piperazin-1-yl]carbonylamino}-4-(2-fluoro-4-{3-[2-(phenyl)acetyl]thioureido}phenoxy)pyridine] | 7.27
O=C(CC(=O)Nc1ccc(Oc2ccnc(NC(=O)N3CCC3)c2)cc1Cl)Nc1ccc(F)cc1 [Example 64, N-(2-Chloro-4-{2-[(azetidine-1-carbonyl)amino]pyridin-4-yloxy}phenyl)-N′-(4-fluorophenyl)malonamide] | 7.23
CN(C)C[C@@H]1CCN(C(=O)Nc2cc(Oc3ccc(NC(=S)NC(=O)Cc4ccc(F)cc4)cc3F)ncn2)C1 [Example 179, 4-{[(3S)-3-(Dimethylaminomethyl)pyrrolidin-1-yl]carbonylamino}-6-(2-fluoro-4-{3-[2-(4-fluorophenyl)acetyl]thioureido}phenoxy)pyrimidine] | 7.60
O=C(CC(=O)Nc1ccc(Oc2ccnc(NC(=O)N3CCCCC3)c2)cc1Cl)Nc1ccc(F)cc1 [Example 65, N-(2-Chloro-4-{2-[(piperidine-1-carbonyl)amino]pyridin-4-yloxy}phenyl)-N′-(4-fluorophenyl)malonamide] | 7.06
O=C(Cc1ccccc1)NC(=O)Nc1ccc(Oc2ccnc(NC(=O)N3CCCC3)c2)cc1Cl [Example 47, Pyrrolidine-1-carboxylic acid {4-[3-chloro-4-(3-phenylacetylureido)phenoxy]pyridin-2-yl}amide] | 7.00
O=C(Cc1ccccc1)NC(=S)Nc1ccc(Oc2cc(NC(=O)N3CCC(CN4CCC4)CC3)ncn2)c(F)c1 [Example 393, 4-(Azetidin-1-ylmethyl)piperidine-1-carboxylic acid {6-[2-fluoro-4-(3-phenylacetylthioureido)phenoxy]pyrimidin-4-yl}amide] | 7.25
O=C(Cc1ccccc1)NC(=O)Nc1ccc(Oc2cc(NC(=O)N3CCCC3)ncn2)c(F)c1 [Example 46, Pyrrolidine-1-carboxylic acid {6-[2-fluoro-4-(3-phenylacetylureido)phenoxy]pyrimidin-4-yl}amide] | 7.35
